# Measurements: patent US9617244B2, “Antibacterial quinoline derivatives” (JANSSEN PHARMACEUTICA NV, priority 2012, dated 2017)
# Columns and labels:
# [1] = test system: Staphylococcus aureus (ATCC29213); experiment: In-vitro anti-bacterial activity, microtitre plate assay, IC90 determination (non-mycobacterial strains); type: cell-based; conditions: 90% inhibitory concentration for bacterial growth, resazurin fluorescence; for IC90 STA B29213: 24 hours; for IC90: Staphylococcus aureus, ATCC29213, 24 h, read-out: IC90 STA B29213
# Outline: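 Growth inhibition measured fluorometrically with resazurin (530/590 nm) after overnight 37 °C incubation under normal atmosphere. Bacteria added at roughly 100 TCID50 per well in Mueller-Hinton broth to five-fold compound dilution series; IC90 reported in μg/ml.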
# [2] = test system: Mycobacterium smegmatis (ATCC607); experiment: In-vitro anti-bacterial activity against strain M. Smegmatis ATCC607; type: cell-based; conditions: 90% inhibitory concentration for bacterial growth, Alamar Blue fluorescence; for IC90 MSM 607: 48 hours; for IC90: Mycolicibacterium smegmatis, ATCC607, 48 h, read-out: IC90 MSM 607
# Outline: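 IC90 (μg/ml) derived from Alamar Blue fluorescence (530/590 nm) after 48 h growth at 37 °C under 5% CO2. About 250 CFU per well in Mueller-Hinton broth faced five-fold serial compound dilutions in BSA-containing wells.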
SMILES,IC90 STA B29213 [1],IC90 MSM 607 [2],melting point,IC90 [1],IC90 [2]
COc1nc2ccc(Cl)cc2cc1C(c1ccc(Cl)cc1)C1(O)CCNCC1F (stereo not drawn) [Compound 456],10.94 µg/mL,10.94 µg/mL,115 °C,–,–
CCn1c(=O)c(C(c2ccc(Cl)cc2)C2(O)CCNC(Cc3ccccc3)C2)cc2cc(Br)ccc21 (stereo not drawn) [Compound 82],2.84 µg/mL,1.60 µg/mL,230 °C,–,–
COc1nc2ccc(S(C)(=O)=O)cc2cc1C(c1ccc(Cl)cc1)C1(O)CCNCC1Cc1cccc[n+]1[O-] (stereo not drawn) [Compound 66],>14.27 µg/mL,>14.27 µg/mL,184 °C,–,–
COc1nc2ccc(Br)cc2cc1C(c1ccc(Cl)cc1)C1(O)CCNCC1Cc1cccc(F)c1 (stereo not drawn) [Compound 226],–,0.90 µg/mL,221 °C,1.8 µg/mL,–
C=CC1CC(O)(C(c2ccc(Cl)cc2)c2cc3cc(Br)ccc3nc2OC)CCN1 (stereo not drawn) [Compound 373],3.08 µg/mL,3.08 µg/mL,193 °C,–,–
COc1nc2ccc(Br)cc2cc1C(c1ccc(Cl)cc1)C1(O)CCNC(Cc2ccc(F)cc2)C1 (stereo not drawn) [Compound 356],1.80 µg/mL,1.80 µg/mL,98 °C,–,–
COc1nc2ccc(S(C)(=O)=O)cc2cc1C(c1ccc(Cl)cc1)C1(O)CCNC(Cc2ccc(F)cc2)C1 (stereo not drawn) [Compound 391],3.59 µg/mL,1.80 µg/mL,120 °C,–,–
COc1nc2ccc(Cl)cc2cc1C(c1ccc(Cl)cc1)C1(O)CCNCC1Cc1ccccn1 (stereo not drawn) [Compound 433],6.40 µg/mL,–,114 °C,–,4.04 µg/mL
COc1nc2ccc(Cl)cc2cc1C(c1ccc(Cl)cc1)C1(O)CCNCC1C (stereo not drawn) [Compound 423],5.43 µg/mL,3.43 µg/mL,174 °C,–,–
COc1nc2ccc(Br)cc2cc1C(c1ccc(Cl)cc1)C1(O)CCNC(C)C1 (stereo not drawn) [Compound 11],–,–,143 °C,3 µg/mL,3 µg/mL
CSc1ccc2[nH]c(=O)c(C(c3ccccc3)C3(O)CCNC(c4ccc(F)cc4C)C3)cc2c1 (stereo not drawn) [Compound 178],6.15 µg/mL,4.89 µg/mL,> 250 °C,–,–
COc1nc2ccc(Br)cc2cc1C(c1ccc(Cl)cc1)C1(O)CCNCC1Cc1cccc(F)c1 (stereo not drawn) [Compound 228],1.80 µg/mL,2.86 µg/mL,196 °C,–,–
COc1nc2ccc(S(C)(=O)=O)cc2cc1C(c1ccc(Cl)cc1)C1(O)CCNC(Cc2ccc(F)c(F)c2)C1 (stereo not drawn) [Compound 211],–,–,150 °C,14.8 µg/mL,7.39 µg/mL
COc1nc2ccc(SC)cc2cc1C(c1ccc(Cl)cc1)C1(O)CCNC(Cc2ccc(F)cc2)C1 (stereo not drawn) [Compound 302],2.14 µg/mL,1.35 µg/mL,120 °C,–,–
COc1nc2ccc(Br)cc2cc1C(c1ccc(SC)cc1)C1(O)CCNC(Cc2ccccc2)C1 (stereo not drawn) [Compound 100],7.09 µg/mL,7.09 µg/mL,143 °C,–,–
COc1nc2ccc(S(C)(=O)=O)cc2cc1C(c1ccc(Cl)cc1)C1(O)CCNC(Cc2ccc(F)cc2)C1 (stereo not drawn) [Compound 390],14.30 µg/mL,11.36 µg/mL,170 °C,–,–
COc1nc2ccc(CN)cc2cc1[C@@H](c1ccccc1)C1(O)CCNC(Cc2ccccc2)C1 (stereo partly drawn) [Compound 246],–,–,100 °C,> 11.8 µg/mL,> 11.8 µg/mL
COc1nc2ccc(Cl)cc2cc1C(c1ccc(S(C)(=O)=O)cc1)C1(O)CCNC(c2ccc(F)cc2C)C1 (stereo not drawn) [Compound 366],7.16 µg/mL,3.59 µg/mL,146 °C,–,–
COc1nc2ccc(SC)cc2cc1C(c1ccc(Cl)cc1)C1(O)CCNC(Cc2ccc(F)cc2)C1 (stereo not drawn) [Compound 261],1.70 µg/mL,1.70 µg/mL,122 °C,–,–
COc1nc2ccc(S(C)(=O)=O)cc2cc1C(c1ccc(Cl)cc1)C1(O)CCNC(Cc2ccc(F)cc2)C1 (stereo not drawn) [Compound 389],7.16 µg/mL,7.16 µg/mL,128 °C,–,–
COc1nc2ccc(Cl)cc2cc1C(c1ccc(Cl)cc1)C1(O)CCNCC1F (stereo not drawn) [Compound 451],5.48 µg/mL,2.18 µg/mL,110 °C,–,–
CSc1ccc2[nH]c(=O)c(C(c3cccc(Cl)c3)C3(O)CCNC(c4ccc(F)cc4C)C3)cc2c1 (stereo not drawn) [Compound 174],3.30 µg/mL,3.30 µg/mL,171 °C,–,–

SMILES,IC90 STA B29213 [1],IC90 MSM 607 [2],melting point,IC90 [1],IC90 [2]
COc1nc2ccc(Cl)cc2cc1C(c1ccc(Cl)cc1)C1(O)CCNCC1F (stereo not drawn) [Compound 452],9.75 µg/mL,4.35 µg/mL,114 °C,–,–
COc1nc2ccc(Br)cc2cc1C(c1ccc(Cl)cc1)C1(O)CCNC(Cc2ccc(F)cc2)C1 (stereo not drawn) [Compound 340],2.86 µg/mL,1.43 µg/mL,132 °C,–,–
COc1nc2ccc(Cl)cc2cc1C(c1ccc(Cl)cc1)C1(O)CCNC(Cc2cccnc2)C1 (stereo not drawn) [Compound 467],–,–,148 °C,3.21 µg/mL,2.55 µg/mL
COc1nc2ccc(SC)cc2cc1C(c1ccc(Cl)cc1)C1(O)CCNC(Cc2ccc(F)cc2)C1 (stereo not drawn) [Compound 301],6.76 µg/mL,6.76 µg/mL,170 °C,–,–
COc1nc2ccc(Cl)cc2cc1C(c1ccc(Cl)cc1)C1(O)CCNC(CO)C1 (stereo not drawn) [Compound 435],–,–,140 °C,5.63 µg/mL,3.99 µg/mL
COc1nc2ccc(F)cc2cc1C(c1ccc(S(C)(=O)=O)cc1)C1(O)CCNC(c2ccc(F)cc2C)C1 (stereo not drawn) [Compound 419],11.03 µg/mL,11.03 µg/mL,154 °C,–,–
COc1nc2ccc(Cl)cc2cc1C(c1ccc(Cl)cc1)C1(O)CCNCC1F (stereo not drawn) [Compound 449],5.48 µg/mL,2.75 µg/mL,190 °C,–,–
COc1nc2ccc(S(C)(=O)=O)cc2cc1C(c1ccc(Cl)cc1)C1(O)CCNC(c2ccc3ccccc3c2)C1 (stereo not drawn) [Compound 466],3.70 µg/mL,1.47 µg/mL,188 °C,–,–
COc1nc2ccc(Cl)cc2cc1C(c1ccc(Cl)cc1)C1(O)CCNC(Cc2ccccc2)C1 (stereo not drawn) [Compound 37],1.14 µg/mL,0.90 µg/mL,107 °C,–,–
COc1nc2ccc(Br)cc2cc1C(c1ccc(Cl)cc1)C1(O)CCNC(C)C1 (stereo not drawn) [Compound 124],–,–,164 °C,3 µg/mL,3 µg/mL
COc1nc2ccc(SC)cc2cc1C(c1ccccc1)C1(O)CCNC(c2ccc(F)cc2C)C1 (stereo not drawn) [Compound 195],3.17 µg/mL,2.00 µg/mL,153 °C,–,–
COc1nc2ccc(S(C)(=O)=O)cc2cc1C(c1ccc(Cl)cc1)C1(O)CCNC(c2ccc(F)cc2C)C1 (stereo not drawn) [Compound 199],7.16 µg/mL,7.16 µg/mL,192 °C,–,–
COc1nc2ccc(S(C)(=O)=O)cc2cc1C(c1ccc(Cl)cc1)C1(O)CCNC(c2ccc3ccccc3c2)C1 (stereo not drawn) [Compound 462],1.86 µg/mL,0.93 µg/mL,192 °C,–,–
COc1nc2ccc(S(C)(=O)=O)cc2cc1C(c1ccc(Cl)cc1)C1(O)CCNC(c2ccc3ccccc3c2)C1 (stereo not drawn) [Compound 459],13.14 µg/mL,3.70 µg/mL,211 °C,–,–
COc1nc2ccc(Br)cc2cc1C(c1ccccc1)C1(O)CCNCC1C (stereo not drawn) [Compound 425],–,–,125 °C,> 11.1 µg/mL,> 11.1 µg/mL
CCn1c(=O)c(C(c2ccc(Cl)cc2)C2(O)CCNC(Cc3ccccc3)C2)cc2cc(Br)ccc21 (stereo not drawn) [Compound 83],7.12 µg/mL,3.57 µg/mL,219 °C,–,–
COc1nc2ccc(Br)cc2cc1C(c1ccccc1)C1(O)CCNC(c2ccc(F)cc2C)C1 (stereo not drawn) [Compound 194],1.69 µg/mL,2.68 µg/mL,149 °C,–,–
CSc1ccc2[nH]c(=O)c(C(c3cccc(Cl)c3)C3(O)CCNC(c4ccc(F)cc4C)C3)cc2c1 (stereo not drawn) [Compound 176],3.30 µg/mL,3.30 µg/mL,192 °C,–,–
COc1nc2ccc(S(C)(=O)=O)cc2cc1C(c1cccc(Cl)c1)C1(O)CCNC(c2ccc(F)cc2C)C1 (stereo not drawn) [Compound 45],1.80 µg/mL,1.14 µg/mL,160 °C,–,–
COc1nc2ccc(Br)cc2cc1C(c1ccc(Cl)cc1)C1(O)CCNC(Cc2ccc(F)cc2F)C1 (stereo not drawn) [Compound 320],3.71 µg/mL,2.95 µg/mL,159 °C,–,–
COc1nc2ccc(Cl)cc2cc1C(c1ccc(SC)cc1)C1(O)CCNC(c2ccc(F)cc2C)C1 (stereo not drawn) [Compound 352],1.70 µg/mL,0.85 µg/mL,123 to 125 °C,–,–
COc1nc2ccc(S(C)(=O)=O)cc2cc1C(c1ccc(Cl)cc1)C1(O)CCNC(c2ccc3ccccc3c2)C1 (stereo not drawn) [Compound 465],5.87 µg/mL,2.62 µg/mL,168 °C,–,–
